One compound from paper PMC9527238, “Glutamate and GABAA receptor crosstalk mediates homeostatic regulation of neuronal excitation in the mammalian brain” (Signal Transduction and Targeted Therapy, 2022) can be followed below.

What all share (type): cell-based
Test [1] deals with T1, α1K155Dβ2γ2E168K GABAAR (Rattus norvegicus, UniProt P18508+P62813+P63138, E206K/K182D).
T1 construct: expressed in transfected cells; host or cells: HEK293
Description: Patch clamp, HEK293, mutant GABAAR. How it is done: (§1) HEK293 cells were cultured in DMEM (Invitrogen) supplemented with 10% fetal bovine serum. Cells were grown to 40–60% confluence and transiently transfected using Lipofectamine 2000 (Invitrogen) with 1:0.5–1 plasmid/lipid ratio. Cells were transfected with a pBK-CMV expression vector containing a rat recombinant GABAAR α, β or γ subunits. Co-transections were done with a plasmid ratio of 1:1 αβ and 2:2:1 for αβγ subunit combinations, respectively. pcDNA3.1-GFP was also co-transfected along with GABAAR subunits as a transfected marker in order to facilitate the visualization of the transfected cells during electrophysiological experiments. Cells were re-plated on glass coverslips after 15–20 h transfection and were cultured for an additional 15–24 h before whole-cell patch-clamp recordings.
(§2) The site-directed mutagenesis of α, β or γ subunits were performed by using the QuikChange method (Stratagene). […] Wild-type or mutant subunits were transfected in HEK293 cells and subjected to electrophysiology examinations.
(§3) Whole-cell patch-clamp recordings were performed under voltage-clamp mode using an Axopatch 200B or 1D patch-clamp amplifier (Molecular Devices) on HEK293 cells and cultured neurons. Whole-cell currents were recorded at a holding potential of −60 mV, and signals were filtered at 2 kHz, digitized at 10 kHz (Digidata 1322 A). Recording pipettes (3–5 MΩ) were filled with the intracellular solution that contained (mM): CsCl 140, HEPES 10, Mg-ATP 4, QX-314 5, pH 7.20; osmolarity, 290–295 mOsm. BAPTA (10 mM) was added in the intracellular solution. The coverslips were continuously superfused with the extracellular solution containing (mM): NaCl 140, KCl 5.4, HEPES 10, MgCl2 1.0, CaCl2 1.3, glucose 20, pH 7.4; osmolarity, 305–315 mOsm.
In general terms: Patch clamp records ionic current or voltage across a cell membrane.

Test [2] concerns the target T2, α1β2E181Gγ2 GABAAR with γ2 R197E mutation (Rattus norvegicus, UniProt P18508+P62813+P63138, E206G/R235E).
T2 construct: expressed in transfected cells; host or cells: HEK293
Description: Patch clamp, HEK293, mutant GABAAR. Here is the method:
as §1, §2, §3

The target of test [3] is T3, α1/β1/γ2 GABAAR (Rattus norvegicus, UniProt P15431+P62813).
T3 construct: expressed in transfected cells; host or cells: HEK293
T3 sequence (P62813 28-455): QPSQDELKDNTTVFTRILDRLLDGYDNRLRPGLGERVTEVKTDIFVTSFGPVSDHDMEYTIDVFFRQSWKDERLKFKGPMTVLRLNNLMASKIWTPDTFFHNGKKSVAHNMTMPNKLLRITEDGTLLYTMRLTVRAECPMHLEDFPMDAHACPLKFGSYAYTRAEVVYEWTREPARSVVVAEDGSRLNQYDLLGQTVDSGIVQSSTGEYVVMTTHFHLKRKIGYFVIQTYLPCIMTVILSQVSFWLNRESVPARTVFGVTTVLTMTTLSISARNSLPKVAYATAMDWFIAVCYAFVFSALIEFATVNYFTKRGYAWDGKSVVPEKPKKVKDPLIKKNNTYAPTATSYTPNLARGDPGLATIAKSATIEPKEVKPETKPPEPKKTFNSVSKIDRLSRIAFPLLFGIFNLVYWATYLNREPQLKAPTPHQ
T3 sequence (P15431 26-474): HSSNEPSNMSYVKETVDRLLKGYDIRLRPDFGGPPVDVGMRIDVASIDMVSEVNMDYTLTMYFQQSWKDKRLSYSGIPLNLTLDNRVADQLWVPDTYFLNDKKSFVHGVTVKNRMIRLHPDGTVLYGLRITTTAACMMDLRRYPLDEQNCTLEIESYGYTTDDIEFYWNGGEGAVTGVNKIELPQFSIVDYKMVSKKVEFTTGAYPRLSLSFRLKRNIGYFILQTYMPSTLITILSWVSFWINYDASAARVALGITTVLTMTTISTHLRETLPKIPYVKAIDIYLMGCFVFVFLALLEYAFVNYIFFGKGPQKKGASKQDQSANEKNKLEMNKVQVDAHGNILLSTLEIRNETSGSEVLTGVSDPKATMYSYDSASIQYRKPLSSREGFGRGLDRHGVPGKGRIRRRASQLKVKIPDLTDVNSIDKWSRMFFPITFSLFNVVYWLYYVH
T3 sequence (P18508 39-466 partner): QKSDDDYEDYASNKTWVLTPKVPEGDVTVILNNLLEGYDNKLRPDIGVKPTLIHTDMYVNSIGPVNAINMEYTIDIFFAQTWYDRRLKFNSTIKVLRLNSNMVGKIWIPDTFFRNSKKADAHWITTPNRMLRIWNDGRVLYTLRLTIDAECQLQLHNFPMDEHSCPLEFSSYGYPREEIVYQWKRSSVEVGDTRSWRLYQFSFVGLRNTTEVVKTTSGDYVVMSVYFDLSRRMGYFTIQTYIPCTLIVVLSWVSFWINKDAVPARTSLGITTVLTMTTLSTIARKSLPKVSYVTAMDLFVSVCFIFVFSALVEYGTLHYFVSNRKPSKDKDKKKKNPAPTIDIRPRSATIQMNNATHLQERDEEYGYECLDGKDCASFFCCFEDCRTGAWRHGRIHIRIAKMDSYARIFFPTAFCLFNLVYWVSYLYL
Description: Patch clamp, HEK293, β1-containing GABAAR. Particulars: wild-type α1/β1/γ2.

Test [4] has as its target T4, αK104D,E137Gβ GABAAR (Rattus norvegicus, UniProt P62813+P63138, E164G/K131D).
T4 construct: expressed in transfected cells; host or cells: HEK293
In words: Patch clamp, HEK293, double mutant α1β2 GABAAR. To be noted: HEK293, read-out: Glutamate potentiation of GABA currents, % of control, normalized to wild-type α1β2.
Text: (§4) The subunits are color-coded individually. The boxed regions are further enlarged in the middle panels, highlighting the predicted glutamate binding pocket in the α+ and β− interface, just below the loop C. […] Relative potentiation was obtained by normalizing potentiation observed in the mutated receptor to that in the respective wild-type receptor.
(§5) To further investigate the characteristics of these four residues, double amino acid substitutions were introduced at residue pairs that are located at different (α1β2) subunits (Fig. 3f and Supplementary Fig. S6b).
as §1, §2
(§6) Whole-cell patch-clamp recordings were performed under voltage-clamp mode using an Axopatch 200B or 1D patch-clamp amplifier (Molecular Devices) on HEK293 cells and cultured neurons. Whole-cell currents were recorded at a holding potential of −60 mV, and signals were filtered at 2 kHz, digitized at 10 kHz (Digidata 1322 A). Recording pipettes (3–5 MΩ) were filled with the intracellular solution that contained (mM): CsCl 140, HEPES 10, Mg-ATP 4, QX-314 5, pH 7.20; osmolarity, 290–295 mOsm. BAPTA (10 mM) was added in the intracellular solution.

In test [5] the target is T5, αE137GβE181G GABAAR (Rattus norvegicus, UniProt P62813+P63138, E164G/E206G).
T5 construct: expressed in transfected cells; host or cells: HEK293
T5 sequence (P62813 28-455 E164G): as the sequence (P62813 28-455) above, with E137G counted along it
T5 sequence (P63138 26-474 E206G): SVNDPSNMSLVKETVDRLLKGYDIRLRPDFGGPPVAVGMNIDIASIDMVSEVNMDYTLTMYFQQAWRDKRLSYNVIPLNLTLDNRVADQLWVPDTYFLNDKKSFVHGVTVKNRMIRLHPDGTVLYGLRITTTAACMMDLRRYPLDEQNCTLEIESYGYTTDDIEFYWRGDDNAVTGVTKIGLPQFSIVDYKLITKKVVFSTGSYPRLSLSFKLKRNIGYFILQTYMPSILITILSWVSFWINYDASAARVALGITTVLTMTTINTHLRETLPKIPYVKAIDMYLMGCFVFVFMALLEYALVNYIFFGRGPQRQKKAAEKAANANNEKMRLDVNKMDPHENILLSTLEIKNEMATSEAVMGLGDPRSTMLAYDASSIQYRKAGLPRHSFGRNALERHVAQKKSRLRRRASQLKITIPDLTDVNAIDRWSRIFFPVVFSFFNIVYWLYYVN
In words: Patch clamp, HEK293, double mutant α1β2 GABAAR. To be noted: HEK293, read-out: Glutamate potentiation of GABA currents, % of control, normalized to wild-type α1β2.
Text: as §4, §5, §1, §2, §6

The target of test [6] is T6, αK104βE181G GABAAR (α1 K104D and β2 E181G) (Rattus norvegicus, UniProt P62813+P63138, E206G/K131D).
T6 construct: expressed in transfected cells; host or cells: HEK293
T6 sequence (P62813 28-455 K131D): as the sequence (P62813 28-455) above, with K104D counted along it
T6 sequence (P63138 26-474 E206G): as the sequence (P63138 26-474 E206G) above
Description: Patch clamp, HEK293, double mutant α1β2 GABAAR. To be noted: HEK293, read-out: Glutamate potentiation of GABA currents, % of control, normalized to wild-type α1β2.
Text: as §4, §5, §1, §2, §6

The target in test [7] is T7, GABAAR-mediated currents, β2E181G KI mice (Mus musculus, UniProt P63137, E206G).
T7 construct: from tissue; host or cells: acute hippocampal slices of homozygous β2E181G knock-in mice (C57BL/6J), CA1 neurons
T7 sequence (P63137 26-512 E206G): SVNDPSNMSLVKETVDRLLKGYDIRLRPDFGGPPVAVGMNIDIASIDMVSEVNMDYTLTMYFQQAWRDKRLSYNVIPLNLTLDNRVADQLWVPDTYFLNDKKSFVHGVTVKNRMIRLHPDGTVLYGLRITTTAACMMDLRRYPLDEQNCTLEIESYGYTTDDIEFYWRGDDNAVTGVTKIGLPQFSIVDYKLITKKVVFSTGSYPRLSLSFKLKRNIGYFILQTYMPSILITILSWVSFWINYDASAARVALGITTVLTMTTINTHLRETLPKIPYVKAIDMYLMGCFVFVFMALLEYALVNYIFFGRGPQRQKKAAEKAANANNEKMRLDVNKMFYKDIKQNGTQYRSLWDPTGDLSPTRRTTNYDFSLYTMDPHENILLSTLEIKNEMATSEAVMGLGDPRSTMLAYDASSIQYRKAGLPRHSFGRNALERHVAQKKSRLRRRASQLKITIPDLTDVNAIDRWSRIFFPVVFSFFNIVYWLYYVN
In words: Whole-cell recording of CA1 neurons, hippocampal slices of homozygous β2E181G KI mice. Particulars: L-Glu 50 µM; KI slices. Here is the method:
We next determined if glutamate-mediated allosteric potentiation of GABAAR function was impaired in hippocampal slices acutely prepared from postnatal 90-day-old KI mice. Whole-cell recordings of CA1 neurons were performed under voltage clamp configuration at a holding potential of −60 mV.
Mice were deeply anesthetized with urethane (1.5 g/kg, i.p.) and transcardially perfused with ice cold sucrose hypertonic cutting solution (in mM: KCl 3.0, NaH2PO4.H2O 1.25, NaHCO3 26, Na-vitamin C 0.4, Na-lactate 2.0, Na-pyruvate 2.0, D-glucose 10.0, Sucrose 220, CaCl2 0.1, MgCl2 2, MgSO4 4.0, pH 7.4, 290–300 mOsm/l) prior to decapitation as described previously.[47] After decapitation, the brain was rapidly removed and transferred to the ice cold cutting solution bubbled with 95% O2 and 5% CO2, and acute coronal brain slices (400 μm) were prepared on a Leica vibratome (VT1200S, Germany). All brain slices were placed into a standard artificial cerebral spinal fluid (ACSF) (in mM: NaCl 124, KCl 2.8, NaH2PO4.H2O 1.25, NaHCO3 26, Na-vitamin C 0.4, Na-lactate 2.0, Na-pyruvate 2.0, D-glucose 10.0, CaCl2 2, MgSO4 1.2, pH 7.4, 290–300 mOsm/l) incubated at 35 °C for 2 h prior to recording. Field excitatory postsynaptic potential (fEPSP) recordings were performed under current-clamp mode using HEKA EPC10 patch-clamp amplifier (HEKA Electronic, Lambrecht/Pfalz, Germany). […]

T4 sequence (P62813 28-455 K131D/E164G): as the sequence (P62813 28-455) above, with K104D, E137G counted along it
T4 sequence (P63138 25-474 limits assumed): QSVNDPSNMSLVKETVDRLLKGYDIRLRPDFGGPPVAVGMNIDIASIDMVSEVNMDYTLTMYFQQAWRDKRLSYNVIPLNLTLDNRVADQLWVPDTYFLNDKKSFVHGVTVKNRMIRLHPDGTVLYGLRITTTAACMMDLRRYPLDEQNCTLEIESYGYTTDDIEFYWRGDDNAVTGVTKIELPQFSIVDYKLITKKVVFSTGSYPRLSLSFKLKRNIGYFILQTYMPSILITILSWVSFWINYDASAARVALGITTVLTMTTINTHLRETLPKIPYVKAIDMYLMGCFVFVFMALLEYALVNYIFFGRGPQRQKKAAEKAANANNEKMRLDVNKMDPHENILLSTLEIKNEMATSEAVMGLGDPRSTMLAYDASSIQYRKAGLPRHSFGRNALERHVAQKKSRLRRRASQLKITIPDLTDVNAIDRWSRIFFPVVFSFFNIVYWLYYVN
T1 sequence (P62813 28-455 K182D): as the sequence (P62813 28-455) above, with K155D counted along it
T1 sequence (P63138 26-474, stated change not applied): as the sequence (P63138 26-474 E206G) above, with G181E counted along it
T1 sequence (P18508 39-466 E206K): as the sequence (P18508 39-466 partner) above, with E168K counted along it
T2 sequence (P62813 28-455): as the sequence (P62813 28-455) above
T2 sequence (P63138 26-474 E206G): as the sequence (P63138 26-474 E206G) above
T2 sequence (P18508 39-466 R235E): as the sequence (P18508 39-466 partner) above, with R197E counted along it

For `N[C@@H](CCC(=O)O)C(=O)O` [glutamate, Glutamate], the “restored potentiation, % of wild-type α1β2γ2” value in test [1] (100 μM glutamate) amounted to 71.8 ± 14.7%; in test [1] (1 mM glutamate), 76.4 ± 10%; in test [2] (Glu 100 μM), 76.6 ± 10.4%; in test [2] (Glu 1 mM), 84.5 ± 16.9%. Moreover, in test [3], the “potentiation of GABA-induced currents by glutamate” value is “could also potentiate GABA-induced currents”. The activity at 100 µM worked out at 17.3 ± 12.9% in test [4] (glutamate 100 μM), 9.2 ± 3% in test [5] (glutamate 100 μM) and 6.6% in test [6] (glutamate 100 μM). Also, the activity at 1000 µM in test [4] (glutamate 1 mM) came out at 45.9 ± 20.9%; in test [5] (glutamate 1 mM), 16.2 ± 1.3%; in test [6] (glutamate 1 mM) it was 27.4 ± 12.6%. Also, the “eIPSCs relative to baseline” value in test [7] is on record as 114.2 ± 9.9%.
